Measurements published in US20200055044A1, “METHODS AND SYSTEMS FOR MICRO PLATELET FUNCTION TESTING USING AN INTEGRATED MINIATURIZED PLATELET FUNCTION ANALYZER” (Atantares Corp., priority 2016, published 2020).

System: platelets in fresh anticoagulated human blood
Assay: impedance-based micro platelet function test with microfabricated 3D electrodes in a microfluidic channel
Format: cell-based
Conditions: 100 μM ADP; human blood with Calcium Chloride and 10 μM PPACK; flow rate 25 μL/min; six frequencies 20 Hz to 2 MHz; logged for 2000 s; FIG. 16
Text: Although not shown explicitly, electrodes of different heights (125 μm, 250 μm), diameters (100 μm, 250 μm, 500 μm), and gaps in-between electrodes (500 μm, 1000 μm) were fabricated using the same process. Pairs of 3D electrodes where each electrode comprises a number of electrically connected metal-coated cylindrical cores arranged in a grid were also fabricated. […] Wires soldered to the patterned metal pads on the substrates were used to connect the 3D electrodes to an Agilent E4980A LCR meter. FIG. 16 show a set 1600 of experimental data using electrodes fabricated according to the process discussed above. 1 mL of fresh anticoagulated human blood, obtained within 4 hrs of use, was mixed with 65 μL of 100 mg/mL Calcium Chloride and 10 μM of D-Phenylalanyl-prolyl-arginyl chloromethyl ketone (PPACK). […] The impedance of the electrodes was continuously monitored and logged at six different frequencies (20 Hz, 200 Hz, 1 kHz, 15 kHz, 200 kHz, 2 MHz) using a custom MATLAB program running on a computer interfaced to the LCR meter. […] The peak impedance values reached or the areas under the impedance-time curves or other measures from these curves may be analyzed and interpreted as indications of platelet activity in response to the modifying reagent added (e.g. ADP). […]

## Nc1ncnc2c1ncn2[C@@H]1O[C@H](COP(=O)(O)OP(=O)(O)O)[C@@H](O)[C@H]1O [ADP, adenosine diphosphate]
  change in electrode impedance after addition of platelet activation reagent: increase in electrode impedances at all frequencies
